Experimental data as given in ChEMBL document CHEMBL3286254, “Structure-guided discovery of 1,3,5 tri-substituted benzenes as potent and selective matriptase inhibitors exhibiting in vivo antitumor efficacy” (Bioorg Med Chem, 2014).
In brackets after ≈: the same amount, converted by molar mass.

Tests used:
DU-145 [1] = test: Antiinvasion activity in human DU145 cells assessed as inhibition of FBS-induced cell invaded to lower surface at 10 uM for 3 days by matrigel assay; type: functional; details: DU-145, 72 h
[2] = Antiinvasion activity in human LNCaP-C42B4 cells assessed as inhibition of FBS-induced cell invaded to lower surface at 10 uM for 3 days by matrigel assay; type: functional; details: LNCaP-C42B4, 72 h
PC-3 [3] = test: Antiinvasion activity in human PC3 cells assessed as inhibition of FBS-induced cell invaded to lower surface at 10 uM for 3 days by matrigel assay; type: functional; details: PC-3, 72 h
DU-145 [4] = test: Cytotoxicity against human DU145 cells assessed as inhibition of number of colonies formed in soft agar measured on day 8; type: functional, cell-based; details: DU-145, 192 h
[5] = Cytotoxicity against human LNCaP-C42B4 cells assessed as inhibition of number of colonies formed in soft agar measured on day 8; type: functional, cell-based; details: LNCaP-C42B4, 192 h
PC-3 [6] = test: Cytotoxicity against human PC3 cells assessed as inhibition of number of colonies formed in soft agar measured on day 8; type: functional, cell-based; details: PC-3, 192 h
[7] = Metabolic stability in mouse liver microsomes assessed as compound remaining after 20 mins; type: ADME; details: read-out: Stability
[8] = Metabolic stability in rat liver microsomes assessed as compound remaining after 20 mins; type: ADME; details: read-out: Stability
[9] = Metabolic stability in human liver microsomes assessed as compound remaining after 20 mins; type: ADME; details: read-out: Stability
[10] = Aqueous solubility of the compound; type: physicochemical; details: buffer
Cytochrome P450 3A4 = Cytochrome P450 3A4 (Homo sapiens, UniProt P08684); test: Inhibition of CYP3A4 (unknown origin); type: ADME
[11] = target: T1, Suppressor of tumorigenicity 14 protein (Homo sapiens, UniProt Q9Y5Y6); test: Inhibition of recombinant matriptase (unknown origin) using Boc-Gln-Ala-Arg-7-amido-4-methyl coumarin hydrobromide
T1 sequence (Q9Y5Y6 whole entry): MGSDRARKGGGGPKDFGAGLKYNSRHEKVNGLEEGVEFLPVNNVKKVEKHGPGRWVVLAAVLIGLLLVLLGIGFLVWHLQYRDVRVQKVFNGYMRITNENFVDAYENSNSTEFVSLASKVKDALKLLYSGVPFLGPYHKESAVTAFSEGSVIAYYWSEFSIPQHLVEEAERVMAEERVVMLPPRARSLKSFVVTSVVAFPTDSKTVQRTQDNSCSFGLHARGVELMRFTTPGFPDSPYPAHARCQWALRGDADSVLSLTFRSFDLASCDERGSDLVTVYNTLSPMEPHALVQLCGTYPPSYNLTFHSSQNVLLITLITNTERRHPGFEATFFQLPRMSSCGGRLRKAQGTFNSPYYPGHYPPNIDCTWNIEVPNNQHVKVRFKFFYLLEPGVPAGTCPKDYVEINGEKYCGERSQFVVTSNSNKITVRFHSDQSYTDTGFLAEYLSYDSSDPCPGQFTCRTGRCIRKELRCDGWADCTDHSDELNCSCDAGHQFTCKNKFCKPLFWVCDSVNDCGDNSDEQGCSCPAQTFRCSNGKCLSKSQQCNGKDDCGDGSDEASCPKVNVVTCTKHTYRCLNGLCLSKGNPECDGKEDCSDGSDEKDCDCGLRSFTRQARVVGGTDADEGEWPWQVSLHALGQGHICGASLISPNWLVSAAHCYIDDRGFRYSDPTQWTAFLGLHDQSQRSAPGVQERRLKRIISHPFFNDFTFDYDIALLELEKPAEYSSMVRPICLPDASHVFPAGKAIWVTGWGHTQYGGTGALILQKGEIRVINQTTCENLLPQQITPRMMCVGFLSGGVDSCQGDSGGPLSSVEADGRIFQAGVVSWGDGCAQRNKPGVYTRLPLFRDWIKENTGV

Cytochrome P450 2D6 = Cytochrome P450 2D6 (Homo sapiens, UniProt P10635); test: Inhibition of CYP2D6 (unknown origin); type: ADME
Cytochrome P450 2C9 = Cytochrome P450 2C9 (Homo sapiens, UniProt P11712); test: Inhibition of CYP2C9 (unknown origin); type: ADME
Cytochrome P450 2C19 = Cytochrome P450 2C19 (Homo sapiens, UniProt P33261); test: Inhibition of CYP2C19 (unknown origin); type: ADME
Coagulation factor X = Coagulation factor X (Bos taurus, UniProt P00743); test: Inhibition of bovine plasma factor 10a using CH3OCO-D-CHA-Gly-Arg-pNA.AcoH substrate
Prothrombin = Prothrombin (Homo sapiens, UniProt P00734); test: Inhibition of human thrombin using Boc-Gln-Ala-Arg-7-amido-4-methyl coumarin hydrobromide
Trypsin = Trypsin (Homo sapiens, UniProt P07477+P07478+P35030); test: Inhibition of human pancreas Trypsin using Boc-Gln-Ala-Arg-7-amido-4-methyl coumarin hydrobromide; type: protein assay
DU-145 [12] = test: Cytotoxicity against human DU145 cells assessed as cell survival at 10 uM after 72 hrs by calcein AM assay; type: functional; details: DU-145, 72 h, read-out: Activity
[13] = Cytotoxicity against human LNCaP-C42B4 cells assessed as cell survival at 10 uM after 72 hrs by calcein AM assay; type: functional; details: LNCaP-C42B4, 72 h, read-out: Activity
PC-3 [14] = test: Cytotoxicity against human PC3 cells assessed as cell survival at 10 uM after 72 hrs by calcein AM assay; type: functional; details: PC-3, 72 h, read-out: Activity
[15] = Tmax in NMRI mouse at 1 mg/kg, sc; details: in vivo
[16] = Cmax in NMRI mouse at 1 mg/kg, sc; details: in vivo
[17] = Terminal half life in NMRI mouse at 1 mg/kg, sc; details: in vivo, read-out: beta t1/2 (converted)
[18] = AUC (0 to infinity) in NMRI mouse at 1 mg/kg, sc; details: plasma
Mus musculus [19] = test: Toxicity in SCID mouse xenografted with human DU145 cells assessed as clinical signs at 1 mg/kg, sc administered twice daily for 31 days; details: in vivo, 744 h
Mus musculus [20] = test: Toxicity in SCID mouse xenografted with human DU145 cells assessed as body weight change at 1 mg/kg, sc administered twice daily for 31 days; details: in vivo, 744 h
DU-145 [21] = test: Antitumor activity against human DU145 cells xenografted in SCID mouse assessed as tumor growth inhibition at 0.5 mg/kg, sc administered twice daily for 31 days; type: functional; details: DU-145, sc, 744 h, route subcutaneous, read-out: TGI
Mus musculus [22] = test: Toxicity in SCID mouse xenografted with human DU145 cells assessed as body weight change at 0.5 mg/kg, sc administered twice daily for 31 days; type: organism-based, DU-145; parameters: dose 0.5 mg/kg, route subcutaneous; details: in vivo, 744 h
Mus musculus [23] = test: Toxicity in SCID mouse xenografted with human DU145 cells assessed as clinical signs at 0.5 mg/kg, sc administered twice daily for 31 days; type: organism-based, DU-145; parameters: dose 0.5 mg/kg, route subcutaneous; details: in vivo, 744 h

Sequence of Cytochrome P450 3A4 (P08684 whole entry): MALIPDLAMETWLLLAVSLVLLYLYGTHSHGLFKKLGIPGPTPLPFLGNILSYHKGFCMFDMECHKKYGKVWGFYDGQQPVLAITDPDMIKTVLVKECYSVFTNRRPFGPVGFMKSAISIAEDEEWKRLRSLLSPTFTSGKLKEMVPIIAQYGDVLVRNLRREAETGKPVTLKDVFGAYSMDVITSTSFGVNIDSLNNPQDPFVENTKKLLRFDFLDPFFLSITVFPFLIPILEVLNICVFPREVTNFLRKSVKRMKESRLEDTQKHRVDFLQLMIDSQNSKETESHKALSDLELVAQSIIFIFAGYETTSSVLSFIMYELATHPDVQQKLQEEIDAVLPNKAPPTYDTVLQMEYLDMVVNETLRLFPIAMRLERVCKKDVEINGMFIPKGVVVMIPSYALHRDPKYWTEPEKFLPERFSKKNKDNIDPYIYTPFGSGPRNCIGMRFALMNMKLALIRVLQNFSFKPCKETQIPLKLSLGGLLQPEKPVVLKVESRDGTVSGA
Sequence of Cytochrome P450 2C19 (P33261 whole entry): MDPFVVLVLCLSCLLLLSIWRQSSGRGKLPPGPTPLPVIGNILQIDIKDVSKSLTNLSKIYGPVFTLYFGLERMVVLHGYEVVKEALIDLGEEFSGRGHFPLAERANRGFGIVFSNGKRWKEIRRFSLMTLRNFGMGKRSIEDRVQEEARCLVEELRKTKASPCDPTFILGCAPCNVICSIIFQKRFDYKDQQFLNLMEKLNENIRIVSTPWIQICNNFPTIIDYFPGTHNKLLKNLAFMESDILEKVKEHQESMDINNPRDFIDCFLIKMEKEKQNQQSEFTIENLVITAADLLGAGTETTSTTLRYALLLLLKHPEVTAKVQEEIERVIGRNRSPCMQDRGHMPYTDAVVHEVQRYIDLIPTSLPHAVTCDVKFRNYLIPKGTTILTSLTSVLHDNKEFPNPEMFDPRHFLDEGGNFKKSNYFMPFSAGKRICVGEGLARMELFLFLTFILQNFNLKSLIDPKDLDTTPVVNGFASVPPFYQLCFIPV
Sequence of Cytochrome P450 2C9 (P11712 whole entry): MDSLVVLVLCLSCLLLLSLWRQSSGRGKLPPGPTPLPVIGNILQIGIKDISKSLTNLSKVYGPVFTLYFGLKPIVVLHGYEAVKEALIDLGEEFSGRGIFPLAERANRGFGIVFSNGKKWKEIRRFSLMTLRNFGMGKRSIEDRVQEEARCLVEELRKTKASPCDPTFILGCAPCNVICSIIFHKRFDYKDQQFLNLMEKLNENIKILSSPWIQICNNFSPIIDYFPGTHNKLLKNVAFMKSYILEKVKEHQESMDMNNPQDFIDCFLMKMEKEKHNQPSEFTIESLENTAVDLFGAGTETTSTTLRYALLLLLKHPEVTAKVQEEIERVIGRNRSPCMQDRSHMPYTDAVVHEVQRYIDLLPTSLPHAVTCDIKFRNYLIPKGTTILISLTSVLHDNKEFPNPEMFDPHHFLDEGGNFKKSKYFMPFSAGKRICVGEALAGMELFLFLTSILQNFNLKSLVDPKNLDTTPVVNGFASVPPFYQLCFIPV
Sequence of Coagulation factor X (P00743 41-180 limits assumed): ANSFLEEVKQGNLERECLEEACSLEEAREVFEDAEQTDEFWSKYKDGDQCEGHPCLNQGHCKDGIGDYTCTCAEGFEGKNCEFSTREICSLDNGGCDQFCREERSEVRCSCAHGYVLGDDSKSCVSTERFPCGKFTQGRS
Sequence of Coagulation factor X (P00743 234-492 limits assumed): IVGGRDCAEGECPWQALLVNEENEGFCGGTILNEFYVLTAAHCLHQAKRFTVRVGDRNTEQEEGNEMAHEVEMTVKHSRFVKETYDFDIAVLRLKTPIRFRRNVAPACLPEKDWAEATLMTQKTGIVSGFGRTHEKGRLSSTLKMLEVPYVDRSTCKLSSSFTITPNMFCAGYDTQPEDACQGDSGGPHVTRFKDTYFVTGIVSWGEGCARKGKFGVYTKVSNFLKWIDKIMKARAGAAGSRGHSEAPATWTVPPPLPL
Sequence of Cytochrome P450 2D6 (P10635 whole entry): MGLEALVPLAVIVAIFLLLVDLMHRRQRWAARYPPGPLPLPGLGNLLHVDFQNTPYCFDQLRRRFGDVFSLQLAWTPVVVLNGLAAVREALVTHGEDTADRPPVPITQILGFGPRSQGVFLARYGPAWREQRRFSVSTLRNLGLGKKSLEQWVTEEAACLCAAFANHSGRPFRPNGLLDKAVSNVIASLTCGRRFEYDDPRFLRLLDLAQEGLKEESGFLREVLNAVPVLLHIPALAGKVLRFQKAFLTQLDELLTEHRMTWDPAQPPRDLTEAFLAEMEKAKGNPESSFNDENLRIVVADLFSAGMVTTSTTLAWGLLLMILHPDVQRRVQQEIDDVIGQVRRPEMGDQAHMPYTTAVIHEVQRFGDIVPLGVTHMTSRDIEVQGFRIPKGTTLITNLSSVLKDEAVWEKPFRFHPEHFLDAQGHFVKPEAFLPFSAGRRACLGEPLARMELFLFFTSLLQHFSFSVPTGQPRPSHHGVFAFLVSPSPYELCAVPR

SMILES	inhibition at 10 µM (DU-145 [1])	inhibition at 10 µM [2]	inhibition at 10 µM (PC-3 [3])	EC50 (DU-145 [4])	EC50 [5]	EC50 (PC-3 [6])	remaining at 20 min [7]	remaining at 20 min [8]	remaining at 20 min [9]	solubility [10]	IC50 (Cytochrome P450 3A4)	Ki [11]	IC50 (Cytochrome P450 2D6)	IC50 (Cytochrome P450 2C9)	IC50 (Cytochrome P450 2C19)	Ki (Coagulation factor X)	Ki (Prothrombin)	Ki (Trypsin)	viability at 10 µM (DU-145 [12])	viability at 10 µM [13]	further results
N=C(N)c1ccc(Oc2cc(Oc3ccc(C(=N)N)cc3)cc(C(=O)N[C@H]3CC[C@H](N)CC3)c2)cc1	81%	84%	97%	0.2 µM	1.36 µM	0.048 µM	81%	100%	85%	194 µM (≈ 94.4 µg/mL)	> 30 µM	0.01 µM	> 30 µM	> 30 µM	> 30 µM	0.516 µM	2.1 µM	1.625 µM	100%	95%	viability at 10 µM (PC-3 [14]): 96%; Tmax [15]: 0.27 h; Cmax [16]: 487 ng/mL; half-life [17]: 1.6 h; AUC(0-inf) [18]: 1000 ng·h/mL; Activity (Mus musculus [19]): Non-toxic; Activity (Mus musculus [20]): < 5%
N=C(N)c1ccc(Oc2cc(NC(=O)[C@H]3CC[C@H](N)CC3)cc(Oc3ccc(C(=N)N)cc3)c2)cc1	98%	63%	86%	0.041 µM	1.54 µM	0.105 µM	83%	91%	97%	200 µM (≈ 97.3 µg/mL)	> 30 µM	0.003 µM	> 30 µM	> 30 µM	> 30 µM	0.503 µM	2.22 µM	0.894 µM	100%	90%	inhibition in vivo at 0.5 mg/kg (DU-145 [21]): 52%; Activity (Mus musculus [22]): < 5%; Activity (Mus musculus [23]): Non-toxic; viability at 10 µM (PC-3 [14]): 94%; Tmax [15]: 0.75 h; Cmax [16]: 484 ng/mL; half-life [17]: 3.3 h; AUC(0-inf) [18]: 1850 ng·h/mL
